Experimental data as given in US12600740B2, “Fluorinated N-acetyl glucosamine analogs and xylose derivatives” (UTI Limited Partnership, priority 2018, dated 2026).

Tests used:
[1] = system: CSPG production by astrocytes; experiment: Western blot of astrocyte conditioned medium, MAB2030 (chondroitin sulfate GAG stubs); format: cell-based, mouse; conditions: for effect on CSPG production by astrocytes: astrocyte conditioned media, 50 μM, 48 hours; for Reduce CSPG production: astrocytes, significance class
Excerpt: Astrocytes are major producers of CSPGs following injury in the CNS [Jones, L. L., Margolis, R. U. & Tuszynski, M. H. The chondroitin sulfate proteoglycans neurocan, brevican, phosphacan, and versican are differentially regulated following spinal cord injury. Experimental Neurology 182, 399-411 (2003); Tang, X., Davies, J. E. & Davies, S. J. Changes in distribution, cell associations, and protein expression levels of NG2, neurocan, phosphacan, brevican, versican V2, and tenascin-C during acute to chronic maturation of spinal cord scar tissue. […] The Journal of neuroscience: the official journal of the Society for Neuroscience 20, 2427-2438 (2000); McKeon, R. J., Jurynec, M. J. & Buck, C. R. The chondroitin sulfate proteoglycans neurocan and phosphacan are expressed by reactive astrocytes in the chronic CNS glial scar. The Journal of neuroscience: the official journal of the Society for Neuroscience 19, 10778-10788 (1999); Haas, C. A., Rauch, U., Thon, N., Merten, T. & Deller, T. Entorhinal cortex lesion in adult rats induces the expression of the neuronal chondroitin sulfate proteoglycan neurocan in reactive astrocytes. The Journal of neuroscience: the official journal of the Society for Neuroscience 19, 9953-9963 (1999)] and they may help drive progression of disability in a model of progressive MS [Mayo, L. et al. Regulation of astrocyte activation by glycolipids drives chronic CNS inflammation. Nature medicine 20, 1147-1156 (2014)]. Therefore astrocytes were used as model cells to determine the ability of the sugar analogs to reduce synthesis of CSPGs. Since CSPGs are exported out of cells, the conditioned media from analog-treated astrocytes were probed by Western blots (FIG. 4). We used antibodies to both the stubs of chondroitin sulfate GAGs attached to the core protein (MAB2030) and to intact 4-sulfated chondroitin sulfate sidechains (2H6) (FIG. 4a). Particularly, we used the 2H6 antibody to label intact 4-sulfated chondroitin sulfate sidechains, and the MAB2030 antibody to detect the stubs of chondroitin sulfate GAGs attached to the core protein. […] 1998, 160 (8), 3812-3819. Poole Poole C. A.; Glant T. T.; Schofield J. R.; Chondrons from articular cartilage. (IV). Immunolocalization of proteoglycan epitopes in isolated canine tibial chondrons. J. Histochem. Cytochem. 1991, 39 (9), 1175-1187].
Astrocytes were plated in uncoated 6-well plates (3 replicate wells per treatment) at 1×10^6 cells/well in mixed glial media, and incubated at 5% CO2 and 37° C. Astrocytes were treated with compounds at 50 μM in AIM-V media for 48 hours. Media was pooled from 3 replicate wells in 15 ml 100K cutoff centricon tubes (EMD Millipore, #UFC905008), which were spun on an ultracentrifuge at 5000× g for 2 cycles of 10 minutes each. When harvested, the cell lysate was kept on ice for 5 minutes with 250 μL of RIPA buffer (ThermoFisher Scientific #89900) containing proteinase inhibitor, and then collected and centrifuged at 14000 g for 5 minutes. Total protein was quantified using a Bradford assay. Conditioned media that were to be probed for chondroitin 4-sulfate GAGs (Millipore, #MAB2030) were first digested with 0.2 U/ml chondroitinase ABC for overnight at 37° C. to remove chondroitin sulfate sidechains. Blots that were to be probed with CSA (2H6, Cosmo) or CS56 (Abcam #ab11570) were not exposed to chondroitinase ABC. Samples were heat denatured with NuPAGE® LDS Sample buffer at 70° C. for 10 minutes and then loaded into 3-8% tris-acetate pre-cast gels (ThermoFisher, #EA0478BOX). The gels were electrophoresed at a constant 150 V for 90 minutes and transferred to a […] polyvinylidene fluoride membrane at a constant 250 mA for 60 minutes. The membranes were blocked for one hour with 10% skim milk in Tris-buffered saline (TBS; 0.9% NaCl, 10 mM Tris-HCl, pH 7.5) containing 0.5% Tween 20 (TBS-T). Primary antibodies were added in 3% skim milk and incubated overnight at 4° C. […]

[2] = system: splenocytes; experiment: Splenocyte thymidine proliferation assay (anti-CD3/anti-CD28); format: cell-based, mouse; conditions: for Reduce T cell proliferation: activated splenocytes, significance class
Protocol: It was assessed whether the glucosamine analogs have immunomodulatory properties on splenocytes isolated in culture. T cells within the splenocyte pool were polyclonally activated with anti-CD3 and anti-CD28 antibodies in the presence of compounds for 48 hours, and proliferation was determined by the uptake of tritiated thymidine and expressed as counts per minute. The relative change in proliferation of treated versus control splenocytes was taken in order to rank the compounds across multiple independent experiments (FIG. 8a).
The spleens were isolated from 8-10-week-old female C57BL/6 mice and homogenized. The cells were isolated by Ficoll gradient and spun for 30 min at 1,800 r.p.m. The cell suspension was removed and the cells were washed once with PBS. The cell pellet was subsequently re-suspended in Roswell Park Memorial Institute media containing 10% fetal bovine serum, 1% penicillin/streptomycin, 1% sodium pyruvate and 1% L-glutamine. Trypan blue exclusion was used to count live cells, and the cells were plated at 2.5×10^5 cells per well in a round-bottom 96-well plate and activated with 1,000 ng/ml plate-bound anti-CD3 and 1,000 ng/ml anti-CD28 suspended in media to preferentially activate T lymphocytes. Compounds were added at final concentrations of 25 μM. The cells were kept at 37° C. and 5% CO2 for 30 h, after which 10 μl/well (1 μCi per well) of 3H-thymidine was added for 18 h. The cells containing thymidine were harvested onto filter mats using a cell harvester and mats were allowed to dry for 24 h. The results were read by liquid scintillation counts.

Row | Structure (SMILES) | effect on CSPG production by astrocytes [1] | Reduce CSPG production [1] | Reduce T cell proliferation [2] | splenocyte proliferation ([2]; 25 μM, 48 hours)
1 | COC[C@H]1OC(OC(C)=O)[C@H](NC(C)=O)[C@@H](OC)[C@@H]1F (stereo partly drawn) [Compound 5, 2-Acetamido-1-O-acetyl-2,4-dideoxy-4-fluoro-3,6-di-O-methyl-α/β-D-glucopyranose] | did not affect CSPG synthesis | n.s. | n.s. | –
2 | CO[C@H]1[C@H](F)[C@@H](COC(C)=O)OC(OC(C)=O)[C@@H]1NC(C)=O (stereo partly drawn) [Compound 6, 2-Acetamido-1,6-di-O-acetyl-2,4-dideoxy-4-fluoro-3-O-methyl-α/β-D-glucopyranose] | did not affect CSPG synthesis | n.s. | n.s. | –
3 | CC(=O)OC[C@H]1OC(OC(C)=O)[C@H](NC(=O)C(F)(F)F)[C@@H](OC(C)=O)[C@@H]1F (stereo partly drawn) [Compound 9, 1,3,6-Tri-O-acetyl-2,4-dideoxy-4-fluoro-2-trifluroacetamido-α/β-D-glucopyranose] | did not lower CSPG production in astrocytes | n.s. | *** (***p < 0.001) | reduced splenocyte proliferation
4 | CC(=O)N[C@H]1C(OC(C)=O)O[C@H](COC(C)=O)[C@H](Cl)[C@@H]1OC(C)=O (stereo partly drawn) [Compound 15, 2-Acetamido-1,3,6-tri-O-acetyl-2,4-dideoxy-4-chloro-α/β-D-galactopyranoside] | – | n.s. | * (*p < 0.05) | –
5 | O[C@@H]1[C@@H](O)[C@H](OCc2ccccc2)OC[C@H]1O [Compound 19, reference compound] | CSPG production was not impacted | n.s. | n.s. | –
6 | CC(=O)O[C@@H]1[C@@H](OC(C)=O)[C@H](OCCO)OC[C@H]1OC(C)=O [Compound 20, 2-Hydroxyethyl 2,3,4-tri-O-acetyl-β-D-xylopyranoside] | CSPG production was not impacted | – | – | –
7 | CC(=O)O[C@@H]1[C@@H](OC(C)=O)[C@H](OCCOCCOCCOCCO)OC[C@H]1OC(C)=O [Compound 21, 2-(2-(2-(2-Hydroxyethoxy)ethoxy)ethoxy)ethyl 2,3,4-tri-O-acetyl-β-D-xylopyranoside] | effective at reducing CSPGs | – | – | –
8 | CC(=O)O[C@@H]1[C@@H](OC(C)=O)[C@H](OCCS(=O)(=O)[O-])OC[C@H]1OC(C)=O.[Na+] [Compound 22, 2-Sulfoethyl 2,3,4-tri-O-acetyl-β-D-xylopyranoside, sodium salt] | CSPG production was not impacted | – | – | –
9 | CC(=O)O[C@@H]1[C@@H](OC(C)=O)[C@@H](OCCCCCCS(=O)(=O)[O-])OC[C@H]1OC(C)=O.[Na+] [Compound 24, 6-Sulfohexyl 2,3,4-tri-O-acetyl-α-D-xylopyranoside, sodium salt] | did not act as an inhibitor | – | – | –
10 | CC(=O)O[C@@H]1OC[C@@H](F)[C@H](OC(C)=O)[C@H]1OC(C)=O [Compound 28, 1,2,3-tri-O-acetyl-4-deoxy-4-fluoro-β-D-xylopyranose] | did not reduce CSPG production | – | – | –
11 | CC(=O)N[C@H]1C(O)O[C@H](CO)[C@@H](O)[C@@H]1O (stereo partly drawn) [GlcNAc, N-Acetyl-D-glucosamine, reference compound] | did not affect CSPG production | – | – | –
